Data taken from patent US4849207A, “Porphyrin derivatives” (Nihon Medi-Physics Co., Ltd., priority 1985, dated 1989).

Assays:
pancreatic cancer [1] = assay: Scintigraphy in cancer-bearing hamster; format: in vivo; conditions: 300 μCi i.v., 72 and 96 hours after administration
Method: (§1) Scintigraphy was obtained 72 and 96 hours after the administration by the use of a gamma-camera equipped with a medium energy high resolution type collimator.

[2] = test system: inflammation (croton oil induced); assay: Distribution in inflammation-induced rats, inflammation to tissue; format: in vivo, SD rats
Method: SD rats of about 200 grams in bodyweight received croton oil (0.1 ml) at the right hind leg subcutaneously to induce inflammation. […] The radioactivity level ratio between the inflamation and each tissue was determined.

tumor = assay: Distribution in cancer-bearing and inflammation-induced hamsters, tumor to tissue
Method: as §1

[3] = test system: inflammation (turpentine oil induced); assay: Distribution in cancer-bearing and inflammation-induced hamsters, inflammation to tissue; conditions: 72 hour post-injection
Method: as §1

pancreatic cancer [4] = assay: Distribution of a radioactive diagnostic agent in cancer-bearing hamster (cancer/organ radioactivity level ratio); conditions: 300 μCi i.v., 96 hours after administration
Method: With lapse of time, the animals were sacrificed, and the organs were extracted and subjected to measurement of radioactivity and weight, from which the radioactivity level ratio between the cancer and each organ was determined.
With lapse of time, the animals were sacrificed, and the ogans were extracted and subjected to measurement of radioactivity and weight, from which the radioactivity level ratio between the cancer and each organ was determined.

[5] = SD rat, 72 hour post-injection, mean and s.d. for 3 animals
[6] = 72 hour post-injection, mean and s.d. for 3 animals, or mean for 2 animals
[7] = hamster, mean and s.d. for 3 animals, or mean for 2 animals

## 2-[1-(^111 In-diethylenetriamine-tetraacetic acid-acetyloxyethane)oxyethyl]-4-[1-(2-hydroxyethyl)oxyethyl] Ga-deuteroporphyrin [^111 In--monoDTPA--EG Ga--DP]
Pancreatic cancer [1]
  scintigraphic imaging of the locus of cancer: the locus of cancer could be clearly imaged at both stages
[2]; [5]
  Inflammation to tissue concentration ratio: Blood: 185.25 ± 82.70
  Inflammation to tissue concentration ratio: Heart: 2.40 ± 0.63
  Inflammation to tissue concentration ratio: Kidney: 1.42 ± 0.35
  Inflammation to tissue concentration ratio: Liver: 0.14 ± 0.04
  Inflammation to tissue concentration ratio: Lung: 1.43 ± 0.32
  Inflammation to tissue concentration ratio: Muscle: 19.23 ± 10.45
  Inflammation to tissue concentration ratio: Spleen: 0.18 ± 0.03
[2]; from Table 6
  accumulation in inflammation compared with ^67 Ga citrate (in words): much lesser accumulation in inflammation than ^67 Ga citrate
tumor; 72 hour post-injection
  imaging of tumor compared with ^67 Ga citrate (in words): superior to ^67 Ga citrate
tumor; [6]
  Tumor to tissue concentration ratio: Blood: 55.75 ± 10.61
  Tumor to tissue concentration ratio: Heart: 1.14 ± 0.28
  Tumor to tissue concentration ratio: Kidney: 0.79 ± 0.08
  Tumor to tissue concentration ratio: Liver: 0.21 ± 0.06
  Tumor to tissue concentration ratio: Lung: 0.52 ± 0.33
  Tumor to tissue concentration ratio: Muscle: 22.16 ± 6.53
  Tumor to tissue concentration ratio: Spleen: 0.16 ± 0.03
tumor; from Table 5, compared with each other
  affinities to tumor and inflammation (in words): nearly equal in affinities to tumor and inflammation
[3]
  imaging of inflammation compared with ^67 Ga citrate (in words): inferior to ^67 Ga citrate
[3]; [7]
  Inflammation to tissue concentration ratio: Blood: 22.96 ± 9.56
  Inflammation to tissue concentration ratio: Heart: 0.49 ± 0.26
  Inflammation to tissue concentration ratio: Kidney: 0.33 ± 0.13
  Inflammation to tissue concentration ratio: Liver: 0.21 ± 0.16
  Inflammation to tissue concentration ratio: Lung: 0.21 ± 0.14
  Inflammation to tissue concentration ratio: Muscle: 8.71 ± 2.98
  Inflammation to tissue concentration ratio: Spleen: 0.06 ± 0.01
Pancreatic cancer [4]
  Cancer/Blood radioactivity level ratio: 61.89
  Cancer/Heart radioactivity level ratio: 3.41
  Cancer/Kidney radioactivity level ratio: 0.91
  Cancer/Liver radioactivity level ratio: 0.53
  Cancer/Lung radioactivity level ratio: 1.33
  Cancer/Spleen radioactivity level ratio: 0.43
